“Also recorded” adds a separate entry of the source.
How the values were obtained:
[1] = test system: monospecies biofilm of Streptococcus sobrinus; conditions: biofilm versus planktonic form; cited from earlier work
[2] = test system: Streptococcus mutans biofilm; assay: Potentiation of chlorhexidine with dual wavelength PDT; assay type: cell-based; conditions: high and low energy photons with photosensitizer; FIG. 3
Excerpt: Treatment can be combined with topic use of antibiotics and disinfectants for synergist antipathogen effect. For example, the use phototherapy with chlorhexidine to target biofilms is new to oral disinfection. The results of dual wavelength photodynamic therapy with chlorhexidine against Streptococcus mutans biofilm shown in appendix III are completely new. […] The effectivity is based on photon and anionic photosensitizer ability to penetrate deeper into biofilm and provide efficient bacteria killing inside the biofilm as well as on the surface. The chlorhexidine effect is mostly present only on the surface of the biofilm. High energy photons reduce the biofilm EPS matrix formation that further increases the chlorhexidine effectivity in subsequent treatments. In a second series of tests, potentiation of chlorhexidine with dual wavelength PDT was evaluated.

[3] = test system: Streptococcus mutans biofilm; assay: Streptococcus mutans monospecies biofilm model, PDT with indocyanine green, viability by serial dilution CFU; assay type: cell-based, Streptococcus mutans (ATCC 25175)
Experimental: In a third series of test, the adaptability of Streptococcus mutans biofilms to multi and single wavelength PDT treatments, respectively, was compared.
Two separate monospecies biofilm model experiments were performed to study the effect of reoccurring photodynamic therapy on biofilm formation. The Streptococcus mutans biofilm experiments were divided in different classes based on biofilm age and the therapy given.
The one-time PDT treatment was performed for 1 day, 2 days and 4 days old biofilms. […] The viability of the bacteria was assessed by serial dilution CFU method which was performed after the last photodynamic therapy treatment.
Streptococcus mutans (ATCC 25175) bacteria was grown over 18 h in growth chamber (36° C., 5% CO2) in BHI-broth (Bio-Rad 3564014). The resulting bacteria suspension was diluted with 0.9% NaCl suspension to optical density of 0.46.
Biofilm was grown on bottom of well plate by adding 100 μl diluted Streptococcus mutans suspension in each well with 100 μl of BHI-broth growth medium. The bacteria plate was incubated in growth chamber (36 Celsius, 5% CO2) and BHI-broth medium changed daily.
Before the light exposure, the growth medium was replaced with indocyanine green suspension which was let to incubate in dark in room temperature for 10 minutes. After the incubation the biofilm was washed twice with 0.9% NaCl solution. The treatment time was calculated from desired light amount and known intensity.
The light exposure was performed by placing the well plate under known LED light source. The given light intensity was analyzed with Thorlabs PM100D and S121C sensor head. Treatment time was changed to result in desired light amount. […]
The first experiment of continuous treatment of Streptococcus biofilm with PDT was completed by using 250 μg/ml ICG with 810 nm light. Different age biofilms of 1 day, 2 days and 4 days were grown, and the treatment was given once to each biofilm to evaluated the effect of single time treatment to differently aged biofilms. […]

Streptococcus mutans = assay: Bacteria plate study: antibacterial effect of 405 nm light compared to PDT; assay type: cell-based; conditions: FIG. 6

Row | Compound | times greater concentration needed to kill biofilm than planktonic counterpart [1] | antimicrobial effect of chlorhexidine combined with multi wavelength PDT versus reference and one wavelength [2] | effect of PDT treatment on biofilm (CFU), every day treated ([3]; 250 μg/ml ICG with 810 nm light (single wavelength), 4 days old biofilm treated every day) | effect of PDT treatment on biofilm (CFU), treatment given once ([3]; 250 μg/ml ICG with 810 nm light, single treatment of 1 day, 2 days and 4 days old biofilms) | bacteria killing with double wavelength PDT, every day therapy versus day 4 only ([3]; ICG, 810 nm combined with 405 nm light, 4 days old biofilm) | light dose resulting in complete inhibition of Streptococcus mutans growth (Streptococcus mutans) [J/cm^2]
1 | [H]/N=C(\N/C(=N/[H])NCCCCCCNC(=N)NC(=N)Nc1ccc(Cl)cc1)Nc1ccc(Cl)cc1 [chlorhexidine] | 100 | increased substantially the antibacterial effect; also recorded: much stronger effect |  |  |  | 
2 | CC1(C)C(/C=C/C=C/C=C/C=C2\N(CCCCS(=O)(=O)O)c3ccc4ccccc4c3C2(C)C)=[N+](CCCCS(=O)(=O)[O-])c2ccc3ccccc3c21 [ICG, Indocyanine green] |  |  | poor treatment effect; also recorded: failed to achieve strong bacteria killing | strong effect of PDT treatment | No significant difference of bacteria killing; also recorded: no bacteria biofilm adaptation to the treatment was observed | 4
3 | amine fluoride | 100 |  |  |  |  | 

Reference: US12263349B2, “Method of treatment of biological surfaces” (Koite Health Oy, priority 2018, dated 2025)
